Numbers after ± are expanded uncertainties.
Columns and labels:
[1] = mn = molality of the nth substance listed, in mol/kg; conditions: 101 kPa, Liquid; for viscosity: Capillary tube (Ostwald / Ubbelohde) method; for mass density: Vibrating tube method
[2] = 101 kPa, Liquid; for viscosity: Capillary tube (Ostwald / Ubbelohde) method; for mass density: Vibrating tube method

CCO [ethanol] + Cc1ccc(N)cc1N
[1], m2 = 0
Conditions | mass density [kg/m3] | viscosity [mPa·s]
293.15 K | 789.56 ± 0.16 | 1.179 ± 0.008
303.15 K | 780.98 ± 0.16 | 0.972 ± 0.006
313.15 K | 772.22 ± 0.16 | 0.806 ± 0.006
323.15 K | 763.29 ± 0.17 | 0.672 ± 0.005
333.15 K | 754.18 ± 0.17 | 0.564 ± 0.004

CCCO [propan-1-ol]
[2]
Conditions | mass density [kg/m3] | viscosity [mPa·s]
293.15 K | 803.86 ± 0.17 | 2.171 ± 0.014
303.15 K | 795.54 ± 0.17 | 1.696 ± 0.012
313.15 K | 787.37 ± 0.17 | 1.338 ± 0.009
323.15 K | 779.01 ± 0.18 | 1.067 ± 0.007
333.15 K | 770.42 ± 0.18 | 0.859 ± 0.006

Cc1ccc(N)cc1N [4-methyl-1,3-benzendiamine] + CCCCO
[1]
Conditions | mass density, 293.15 K [kg/m3] | mass density, 303.15 K [kg/m3] | mass density, 313.15 K [kg/m3] | mass density, 323.15 K [kg/m3] | mass density, 333.15 K [kg/m3] | viscosity, 293.15 K [mPa·s] | viscosity, 303.15 K [mPa·s] | viscosity, 313.15 K [mPa·s] | viscosity, 323.15 K [mPa·s] | viscosity, 333.15 K [mPa·s]
m1 = 0.0497 | 811.16 ± 0.17 | 803.49 ± 0.17 | 795.7 ± 0.17 | 787.74 ± 0.17 | 779.59 ± 0.17 | 2.922 ± 0.019 | 2.237 ± 0.015 | 1.731 ± 0.012 | 1.357 ± 0.009 | 1.076 ± 0.008
m1 = 0.0997 | 812.62 ± 0.17 | 804.93 ± 0.17 | 797.13 ± 0.17 | 789.15 ± 0.17 | 781 ± 0.17 | 2.939 ± 0.019 | 2.246 ± 0.015 | 1.736 ± 0.012 | 1.362 ± 0.009 | 1.079 ± 0.008
m1 = 0.1501 | 814.06 ± 0.17 | 806.37 ± 0.17 | 798.55 ± 0.17 | 790.56 ± 0.17 | 782.41 ± 0.17 | 2.954 ± 0.019 | 2.258 ± 0.015 | 1.746 ± 0.012 | 1.367 ± 0.009 | 1.083 ± 0.008
m1 = 0.1999 | 815.48 ± 0.17 | 807.77 ± 0.17 | 799.94 ± 0.17 | 791.94 ± 0.17 | 783.78 ± 0.17 | 2.972 ± 0.02 | 2.269 ± 0.015 | 1.751 ± 0.012 | 1.372 ± 0.009 | 1.087 ± 0.008
m1 = 0.2491 | 816.86 ± 0.17 | 809.14 ± 0.17 | 801.3 ± 0.17 | 793.29 ± 0.17 | 785.12 ± 0.17 | 2.994 ± 0.02 | 2.279 ± 0.015 | 1.759 ± 0.012 | 1.377 ± 0.009 | 1.091 ± 0.008

O [water] + Cc1ccc(N)cc1N
[1], m2 = 0
Conditions | mass density [kg/m3]
323.15 K | 988.04 ± 0.23
333.15 K | 983.2 ± 0.23

CCO [ethanol]
[2]
Conditions | mass density [kg/m3] | viscosity [mPa·s]
293.15 K | 789.56 ± 0.16 | 1.179 ± 0.008
303.15 K | 780.98 ± 0.16 | 0.972 ± 0.006
313.15 K | 772.22 ± 0.16 | 0.806 ± 0.006
323.15 K | 763.29 ± 0.17 | 0.672 ± 0.005
333.15 K | 754.18 ± 0.17 | 0.564 ± 0.004

O [water] + Cc1c(N)cccc1N
[1], m2 = 0
Conditions | mass density [kg/m3] | viscosity [mPa·s]
293.15 K | – | 1.002 ± 0.008
303.15 K | – | 0.798 ± 0.007
313.15 K | – | 0.653 ± 0.006
323.15 K | 988.04 ± 0.23 | 0.547 ± 0.005
333.15 K | 983.2 ± 0.23 | 0.467 ± 0.004

Cc1ccc(N)cc1N [4-methyl-1,3-benzendiamine] + O
[1]
Conditions | mass density, 293.15 K [kg/m3] | mass density, 303.15 K [kg/m3] | mass density, 313.15 K [kg/m3] | mass density, 323.15 K [kg/m3] | mass density, 333.15 K [kg/m3] | viscosity, 293.15 K [mPa·s] | viscosity, 303.15 K [mPa·s] | viscosity, 313.15 K [mPa·s] | viscosity, 323.15 K [mPa·s] | viscosity, 333.15 K [mPa·s]
m1 = 0.0503 | 998.84 ± 0.23 | 996.26 ± 0.23 | 992.81 ± 0.23 | 988.59 ± 0.23 | 983.71 ± 0.23 | 1.018 ± 0.008 | 0.81 ± 0.007 | 0.662 ± 0.006 | 0.554 ± 0.005 | 0.472 ± 0.004
m1 = 0.0998 | 999.45 ± 0.23 | 996.84 ± 0.23 | 993.36 ± 0.23 | 989.11 ± 0.23 | 984.2 ± 0.23 | 1.035 ± 0.008 | 0.822 ± 0.007 | 0.671 ± 0.006 | 0.562 ± 0.005 | 0.479 ± 0.004
m1 = 0.1503 | 1000.06 ± 0.23 | 997.41 ± 0.23 | 993.9 ± 0.23 | 989.62 ± 0.23 | 984.68 ± 0.23 | 1.051 ± 0.009 | 0.831 ± 0.007 | 0.679 ± 0.006 | 0.571 ± 0.005 | 0.484 ± 0.004
m1 = 0.1999 | 1000.64 ± 0.23 | 997.95 ± 0.23 | 994.42 ± 0.23 | 990.11 ± 0.23 | 985.14 ± 0.23 | 1.069 ± 0.009 | 0.842 ± 0.007 | 0.686 ± 0.006 | 0.578 ± 0.005 | 0.49 ± 0.004

CCCO [propan-1-ol] + Cc1c(N)cccc1N
[1], m2 = 0
Conditions | mass density [kg/m3] | viscosity [mPa·s]
293.15 K | 803.86 ± 0.17 | 2.171 ± 0.014
303.15 K | 795.54 ± 0.17 | 1.696 ± 0.012
313.15 K | 787.37 ± 0.17 | 1.338 ± 0.009
323.15 K | 779.01 ± 0.18 | 1.067 ± 0.007
333.15 K | 770.42 ± 0.18 | 0.859 ± 0.006

O [water]
[2]
Conditions | mass density [kg/m3] | viscosity [mPa·s]
293.15 K | – | 1.002 ± 0.008
303.15 K | – | 0.798 ± 0.007
313.15 K | – | 0.653 ± 0.006
323.15 K | 988.04 ± 0.23 | 0.547 ± 0.005
333.15 K | 983.2 ± 0.23 | 0.467 ± 0.004

— the NIST ThermoML archive (doi:10.1021/je400968v)
